Test results taken from patent US7341730B1, “Inhibitors of angiogenesis and tumor growth” (University of Southern California, priority 1998, dated 2008).

Experiments:
Type in all cases: cell-based
[1] = test system: KS Y-1 cells; experiment: KS Y-1 cell proliferation assay (MTT); settings: concentration not given
Description: (§1) To determine if Saposin B polypeptides had anti-angiogenic activity, a series of overlapping polypeptides were synthesized and tested in the KS Y-1 cell proliferation assay. The overlapping polypeptides are SEQ ID NOs:13 though 43. Cell Proliferation assays in either KS cells or fibroblast. Cells were plated in 48 well plates at equal numbers in appropriate culture medium. Cells were treated with the test compounds at various concentrations on day one, and on day 3. MTT was done on day 5. KS cells were used to represent the activated endothelial cells, while fibroblast cells represent the control cells. The results are remarkable for the lack of toxicity to the fibroblast relative to the activated endothelial cells/KS cells.

[2] = test system: KS cell lines; experiment: KS cell migration in transwell plates; settings: KS cell lines
Description: The assays were done in double chamber wells separated by fibrinogen-coated membrane. Chemotaxis was induced by bFGF (25 ng/mL) in the lower chamber. Endothelial cells or KS cells (5×10^4/mL) were placed in the upper chamber in the presence and absence of test polypeptides. Taxol at 10 ng/mL was used as a known inhibitor of migration. Cell migration across the membrane was quantitated after an overnight incubation.
Angiogenesis is mediated by complex biochemical processes including degradation of the basement membrane under existing blood vessel endothelial cells, followed by proliferation and migration of endothelial cells, followed by formation of capillary loops, and recruitment of vascular smooth muscle cells to encase the newly formed vessels and provide stability. KS and endothelial cell migration in the presence of Saposin B was studied in transwell culture plates with 8 μm pore membranes (Costar, Cambridge, Mass.).
Briefly, wells were coated with fibronectin (25 μg/mL) overnight, and endothelial cells or KS cells were plated in the upper chamber with 100 μL of DMEM/0.4% FCS. 500 μL of DMEM/0.4% FCS was added to the lower chamber and incubated at 37° C. for one hour. The test polypeptides, at various concentrations, were added to the upper chamber, and chemotactic agents (VEGF or bFGF at 20 ng/mL) were added to the lower cell-culture chambers. The plates were incubated for 5 hr at 37° C. and the cells crossing the fibronectin-coated membrane were counted after wiping the cells off the membrane in the upper chamber with a cotton swab.
The cells that traversed the membrane were fixed with Diff-Quik stain according to the manufacturer's instruction (Dade Diagnostics Inc., Aguada, PR). The cells were counted under a microscope at 320× in four randomly selected fields. The experiments were done in duplicate and repeated at least three times.

[3] = test system: fibroblast cells (T1); experiment: Fibroblast proliferation assay (MTT), control cells
Description: as §1

[4] = test system: endothelial cells (HUVEC); experiment: Growth inhibition of endothelial cells
Description: (§2) Typically, in an anti-proliferation assay, the suppression of growth in the presence of the compound to be tested is measured. For example, the above cells are incubated with the polypeptides of this invention for a suitable time and the decrease in the growth rate relative to a negative control, i.e., cells of the same cell line which have been incubated in media alone, is measured. Growth of the cell culture can be measured by any method acceptable to one of skill, including but not limited to, 3H-thymidine uptake, cell counting and tetrazolium dye uptake.
(§3) By SDS-PAGE, the bacterial product was smaller than the eukaryotic protein. Because prokaryotically expressed proteins are not glycosylated, the difference in molecular weights probably represents the presence of carbohydrate in the eukaryotic protein. Recombinant proteins were then tested in KS, endothelial and control cell lines. Activity was found only in KS cell lines and endothelial cells.

[5] = test system: KS cell lines; experiment: Growth inhibition of KS cell lines by recombinant proteins; settings: recombinant or naturally occurring protein
Description: as §2, §3

GDVCQDCIQMV [SEQ ID NO:19] was tested, and the “Cell Proliferation Activity (% of control), KS Y-1” value ([1]; KS Y-1, first value column) was 28 % of control, the “Cell Proliferation Activity (% of control), KS Y-1” value ([1]; KS Y-1) was 8 % of control and the “% Cells Migrating Through Membrane (of Control)” value ([2]; 1 μg/mL) was 78.23%. The “% Cells Migrating Through Membrane (of Control)” value ([2]; 10 μg/mL) was 40.32%, the “% Cells Migrating Through Membrane (of Control)” value ([2]; 50 μg/mL) was 20.98% and the “Fibroblast Proliferation, % of Control” value ([3]; 1 μg/mL) was 91.3 % of Control. The “Fibroblast Proliferation, % of Control” value ([3]; 10 μg/mL) was 91.3 % of Control.

B1: Saposin D: sphingolipid-binding glycoprotein derived from Prosaposin, recombinant (protein, UniProt P07602 405-486, looked up)
Saposin-D: DGGFCEVCKKLVGYLDRNLEKNSTKQEILAALEKGCSFLPDPYQKQCDQFVAEYEPVLIEILVEVMDPSFVCLKIGACPSAH
modifications: Saposin-D
With B1 the “growth inhibition / activity against endothelial cells” value [4] was “no activity” and the “growth inhibition / activity against KS cell lines” value [5] was “no activity”.

B2: Prosaposin: 70 kD glycoprotein, precursor of Saposin A, B, C and D; naturally occurring full-length (protein, listed as Homo sapiens)
chain: MYALFLLASLLGAALAGPVLGLKECTRGSAVWCQNVKTASDCGAVKHCLQTVWNKPTVKSLPCDICKDVVTAAGDMLKDNATEEEILVYLEKTCDWLPKPNMSASCKEIVDSYLPVILDIIKGEMSRPGEVCSALNLCESLQKHLAELNHQKQLESNKIPELDMTEVVAPFMANIPLLLYPQDGPRSKPQPKDNGDVCQDCIQMVTDIQTAVRTNSTFVQALVEHVKEECDRLGPGMADICKNYISQYSEIAIQMMMHMQPKEICALVGFCDEVKEMPMQTLVPAKVASKNVIPALELVEPIKKHEVPAKSDVYCEVCEFLVKEVTKLIDNNKTEKEILDAFDKMCSKLPKSLSEECQEVVDTYGSSILSILLEEVSPELVCSMLHLCSGTRLPALTVHVTQPKDGGFCEVCKKLVGYLDRNLEKNSTKQEILAALEKGCSFLPDPYQKQCDQFVAEYEPVLIEILVEVMDPSFVCLKIGACPSAHKPLLGTEKCIWGPSYWCQNTETAAQCNAVEHCKRHVWN
modifications: prosaposin
notes: 70 kD glycoprotein, precursor of Saposin A, B, C and D; naturally occurring full-length
In the case of B2, the “growth inhibition / activity against endothelial cells” value [4] is reported as “no activity” and the “growth inhibition / activity against KS cell lines” value [5] is reported as “no activity”.

B3: Saposin A: sphingolipid-binding glycoprotein derived from Prosaposin, recombinant (protein, UniProt P07602 60-142, looked up)
Saposin-A: SLPCDICKDVVTAAGDMLKDNATEEEILVYLEKTCDWLPKPNMSASCKEIVDSYLPVILDIIKGEMSRPGEVCSALNLCESLQ
modifications: Saposin-A
For B3, the “growth inhibition / activity against endothelial cells” value [4] was “no activity” and the “growth inhibition / activity against KS cell lines” value [5] was “no activity”.
